The values below come from ChEMBL document CHEMBL1201862, “PubChem BioAssay data set” (2004).

Among the test systems are SNB-75; OVCAR-8; EKVX; CCRF-CEM; TK-10; OVCAR-4; K562; RXF 393; SK-OV-3; HCC 2998; HOP-92; NCI-H522; SK-MEL-28; SN12C; SK-MEL-2; UACC-257; SF-268; SW-620; HOP-62; NCI-H23.
What all share (assay): NCI tumour cell line growth inhibition, 48 h

Structures are written as SMILES.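 Method: 48-hour compound exposure of cells in 96-well plates, five concentrations, linear interpolation of endpoints. Abbreviation: GI50, concentration required for 50% inhibition of growth.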 Calls of active or inactive are those of the source. Cut-off read from the data, not from the text of the source: active = GI50 up to about 1.1 µM and inactive = higher.

`CCCCCCCCCCCCOCCCOP(=O)([O-])OCC[N+](C)(C)C`: the GI50 with SNB-75 is 24.9 µM (inactive); in the assay on OVCAR-8, 47.8 µM (inactive); in the assay with EKVX, 99.1 µM (inactive); with CCRF-CEM it was 21.1 µM (inactive); in the assay with TK-10 it was 3.4 µM (inactive); in the assay on OVCAR-4, 22.1 µM (inactive). Besides, the GI50 in the assay on K562 is 48.8 µM (inactive); in the assay with RXF 393 it was 9.75 µM (inactive); in the assay with SK-OV-3 it was 50.8 µM (inactive); in the assay with HCC 2998 it was 7.4 µM (inactive); with HOP-92, 19.4 µM (inactive); in the assay with NCI-H522 it was 22.7 µM (inactive). Also, the GI50 in the assay with SK-MEL-28 is 58.5 µM (inactive); in the assay on SN12C it was 28.5 µM (inactive); in the assay with SK-MEL-2, 43.5 µM (inactive); in the assay with UACC-257, > 76 µM (inactive); in the assay on SF-268, 30.3 µM (inactive); in the assay on SW-620 it was 63.5 µM (inactive). The GI50 with HOP-62 was 43.2 µM (inactive); in the assay on NCI-H23, 67.6 µM (inactive).

As to `Clc1cc2ns[s+]c2cc1Cl`, the GI50 with SNB-75 is 21 µM (inactive); in the assay on OVCAR-8, > 56.5 µM (inactive); with EKVX, 81.8 µM (inactive); in the assay with CCRF-CEM, 33.4 µM (inactive); with TK-10 it was > 44.9 µM (inactive); in the assay on OVCAR-4 it was > 100 µM (inactive). Moreover, the GI50 in the assay with K562 was 4.55 µM (inactive); in the assay with RXF 393 it was > 100 µM (inactive); in the assay on SK-OV-3, > 100 µM (inactive); with HCC 2998, 59.7 µM (inactive); with HOP-92 it was 36.1 µM (inactive); with NCI-H522, 27.6 µM (inactive). Further, the GI50 was > 81.8 µM (inactive) in the assay on SK-MEL-28; 58.9 µM (inactive) with SN12C; > 45.1 µM (inactive) in the assay with SK-MEL-2; > 86.3 µM (inactive) in the assay with UACC-257; 21.1 µM (inactive) with SF-268; 32.8 µM (inactive) in the assay on SW-620. Besides, the values for the GI50 with HOP-62 and in the assay with NCI-H23 were 31.8 µM (inactive) and 73.8 µM (inactive), respectively.

Consider `Cc1ccccc1NC(=O)c1nc(S)nc(N)c1-c1ccccc1C`, for which the GI50 in the assay on SNB-75 is 1.74 µM (inactive); in the assay on OVCAR-8, > 100 µM (inactive); in the assay on EKVX, > 100 µM (inactive); in the assay with CCRF-CEM it was > 100 µM (inactive); in the assay with TK-10 it was > 100 µM (inactive); in the assay with OVCAR-4, > 100 µM (inactive). Further, the GI50 in the assay on K562, in the assay with RXF 393, with SK-OV-3, in the assay on HCC 2998, in the assay with HOP-92 and in the assay with NCI-H522 was > 100 µM (inactive) each time. The GI50 in the assay with SK-MEL-28, in the assay on SN12C, in the assay with SK-MEL-2, in the assay on UACC-257, in the assay on SF-268 and with SW-620 was > 100 µM (inactive) each time. The GI50 in the assay on HOP-62 and in the assay on NCI-H23 was > 100 µM (inactive) each time.

In the case of `Cc1ccc(Oc2ccc(C(=O)c3cccc(C(=O)c4ccc(Oc5ccc(C)cc5)cc4)n3)cc2)cc1`, the GI50 is 42.2 µM (inactive) with SNB-75; > 100 µM (inactive) with OVCAR-8; > 100 µM (inactive) in the assay on EKVX; > 100 µM (inactive) in the assay with CCRF-CEM; > 100 µM (inactive) in the assay with TK-10; 71.8 µM (inactive) in the assay on OVCAR-4. Also, the GI50 with K562, in the assay on RXF 393, with SK-OV-3, with HCC 2998, in the assay on HOP-92 and in the assay on NCI-H522 was > 100 µM (inactive) throughout. The GI50 in the assay with SK-MEL-28, in the assay with SN12C, in the assay with SK-MEL-2, in the assay with UACC-257, in the assay on SF-268 and in the assay with SW-620 was > 100 µM (inactive) in each case. Besides, the GI50 in the assay on HOP-62 and in the assay on NCI-H23 was > 100 µM (inactive) in each case.

With `c1ccc(-c2ccc(-c3ccc(C4=NCCN4)cc3)o2)cc1`, the GI50 was 2.38 µM (inactive) with SNB-75; 3.59 µM (inactive) with OVCAR-8; 3.37 µM (inactive) in the assay on EKVX; 1.56 µM (inactive) with CCRF-CEM; 5.41 µM (inactive) in the assay with TK-10; 6.11 µM (inactive) in the assay with OVCAR-4. Further, the GI50 in the assay with K562 is 1.42 µM (inactive); with RXF 393 it was 2.56 µM (inactive); with SK-OV-3, 5.36 µM (inactive); in the assay with HCC 2998, 1.35 µM (inactive); in the assay on HOP-92 it was 2.17 µM (inactive); in the assay on NCI-H522, 2.02 µM (inactive). Also, the GI50 was 1.8 µM (inactive) in the assay with SK-MEL-28; 2.99 µM (inactive) in the assay with SN12C; 1.87 µM (inactive) with SK-MEL-2; 2.15 µM (inactive) in the assay with UACC-257; 2.8 µM (inactive) with SF-268; 2 µM (inactive) in the assay with SW-620. In addition, the values for the GI50 with HOP-62 and with NCI-H23 were 3.67 µM (inactive) and 4.32 µM (inactive), respectively.

Take `CCCCCCCCCCCCCCCCCCNc1ccn(C2OC(COP(=O)(O)OCC3OC(n4ccc(N)nc4=O)C(O)C3O)C(O)C2O)c(=O)n1` (stereo not given): the GI50 was > 100 µM (inactive) in the assay with SNB-75; 20 µM (inactive) in the assay on OVCAR-8; > 100 µM (inactive) in the assay with EKVX; 16.1 µM (inactive) with CCRF-CEM; > 100 µM (inactive) in the assay with TK-10; > 72.8 µM (inactive) in the assay on OVCAR-4. In addition, the GI50 is 65.8 µM (inactive) in the assay with K562; > 100 µM (inactive) with RXF 393; > 86.9 µM (inactive) in the assay on SK-OV-3; 38.2 µM (inactive) with HCC 2998; > 51.3 µM (inactive) with HOP-92; > 37.8 µM (inactive) with NCI-H522. For the same compound, the GI50 in the assay with SK-MEL-28 was > 92 µM (inactive); in the assay with SN12C, 65 µM (inactive); in the assay on SK-MEL-2 it was > 100 µM (inactive); in the assay with UACC-257 it was > 100 µM (inactive); in the assay on SF-268 it was 63.8 µM (inactive); with SW-620 it was > 89.7 µM (inactive). The GI50 in the assay on HOP-62 is 29.6 µM (inactive); in the assay with NCI-H23, 27.5 µM (inactive).

Regarding `CSc1ccc2c(cc1=O)[C@@H](NC(=O)c1cccc([N+](=O)[O-])c1)CCc1cc(O)c(O)c(O)c1-2`, the GI50 was 25.1 µM (inactive) in the assay with SNB-75; 66.5 µM (inactive) with OVCAR-8; 50.9 µM (inactive) with EKVX; 34 µM (inactive) with CCRF-CEM; > 100 µM (inactive) with TK-10; 50 µM (inactive) in the assay with OVCAR-4. The GI50 was 26.6 µM (inactive) in the assay on K562; 51.2 µM (inactive) with RXF 393; 42.4 µM (inactive) with SK-OV-3; 92.7 µM (inactive) with HCC 2998; > 100 µM (inactive) in the assay on HOP-92; 12.6 µM (inactive) with NCI-H522. Also, the GI50 in the assay on SK-MEL-28 was > 100 µM (inactive); in the assay with SN12C, 27.3 µM (inactive); in the assay with SK-MEL-2, 34.8 µM (inactive); with UACC-257 it was 87.9 µM (inactive); with SF-268, 57.9 µM (inactive); in the assay on SW-620, 23.5 µM (inactive). Also, the values for the GI50 in the assay with HOP-62 and with NCI-H23 were > 100 µM (inactive) and 33 µM (inactive), respectively.

For `CO[C@H]1C[C@H](O[C@H]2CC[C@@]3(C)[C@H](CC[C@@H]4[C@@H]3CC[C@]3(C)[C@@H](C5=CC(=O)OC5)CC[C@]43O)C2)O[C@H](C)[C@H]1O`, the GI50 in the assay on SNB-75 is < 0.0134 µM (active); in the assay on OVCAR-8 it was < 0.01 µM (active); with EKVX, < 0.01 µM (active); with CCRF-CEM it was < 0.01 µM (active); in the assay with TK-10, < 0.0246 µM (active); with OVCAR-4, < 0.01 µM (active). Moreover, the GI50 is < 0.01 µM (active) with K562; < 0.01 µM (active) with RXF 393; < 0.0113 µM (active) with SK-OV-3; 0.015 µM (active) in the assay with HCC 2998; < 0.01 µM (active) in the assay on HOP-92; < 0.01 µM (active) in the assay with NCI-H522. Also, the GI50 was 0.024 µM (active) in the assay with SK-MEL-28; < 0.01 µM (active) in the assay with SN12C; 0.0151 µM (active) in the assay with SK-MEL-2; < 0.0137 µM (active) with UACC-257; < 0.01 µM (active) in the assay with SF-268; < 0.01 µM (active) with SW-620. Besides, the GI50 in the assay with HOP-62 and in the assay with NCI-H23 was < 0.01 µM (active) throughout.
